Assay results taken from BigSolDB 2.1.

C=C1CC[C@H](O)C/C1=C/C=C1\CCC[C@]2(C)[C@@H]([C@H](C)CCCC(C)C)CC[C@@H]12
solubility (mole fraction) (in acetone, 248.2 K): 0.00611 | solubility (mole fraction) (in acetone, 253.2 K): 0.00805 | solubility (mole fraction) (in acetone, 258.2 K): 0.0106 | solubility (mole fraction) (in acetone, 263.2 K): 0.0143 | solubility (mole fraction) (in acetone, 268.2 K): 0.0192 | solubility (mole fraction) (in acetone, 273.2 K): 0.028 | solubility (mole fraction) (in acetonitrile, 248.2 K): 7.61e-05 | solubility (mole fraction) (in acetonitrile, 253.2 K): 9.25e-05 | solubility (mole fraction) (in acetonitrile, 258.2 K): 0.000133 | solubility (mole fraction) (in acetonitrile, 263.2 K): 0.00016 | solubility (mole fraction) (in acetonitrile, 268.2 K): 0.000252 | solubility (mole fraction) (in acetonitrile, 273.2 K): 0.000311 | solubility (mole fraction) (in ethanol, 248.2 K): 0.0532 | solubility (mole fraction) (in ethanol, 253.2 K): 0.0646 | solubility (mole fraction) (in ethanol, 258.2 K): 0.0796 | solubility (mole fraction) (in ethanol, 263.2 K): 0.0965 | solubility (mole fraction) (in ethanol, 268.2 K): 0.116 | solubility (mole fraction) (in ethanol, 273.2 K): 0.14 | solubility (mole fraction) (in ethyl acetate, 248.2 K): 0.0219 | solubility (mole fraction) (in ethyl acetate, 253.2 K): 0.0287 | solubility (mole fraction) (in ethyl acetate, 258.2 K): 0.0366 | solubility (mole fraction) (in ethyl acetate, 263.2 K): 0.0478 | solubility (mole fraction) (in ethyl acetate, 268.2 K): 0.0639 | solubility (mole fraction) (in ethyl acetate, 273.2 K): 0.0883 | solubility (mole fraction) (in methanol, 248.2 K): 0.00204 | solubility (mole fraction) (in methanol, 253.2 K): 0.00249 | solubility (mole fraction) (in methanol, 258.2 K): 0.00337 | solubility (mole fraction) (in methanol, 263.2 K): 0.0046 | solubility (mole fraction) (in methanol, 268.2 K): 0.00625 | solubility (mole fraction) (in methanol, 273.2 K): 0.00993 | solubility (mole fraction) (in n-propanol, 248.2 K): 0.0647 | solubility (mole fraction) (in n-propanol, 253.2 K): 0.0873 | solubility (mole fraction) (in n-propanol, 258.2 K): 0.111 | solubility (mole fraction) (in n-propanol, 263.2 K): 0.136 | solubility (mole fraction) (in n-propanol, 268.2 K): 0.163 | solubility (mole fraction) (in n-propanol, 273.2 K): 0.193
